Structures can show the parent of a compound that is named as a salt.

The data set can be described thus: RP, Waters ACQUITY UPLC BEH C18, 38 °C, 0.24 mL/min; A: water + 0.1% formic acid, pH 3; B: acetonitrile + 0.1% formic acid, pH 3; gradient (min/%B) 0/0 0.25/0 0.4/9 0.8/17 1.9/100 2.1/100 2.11/0 3/0. Conditions: stereoisomer not certain.
For the compound `OCC1OC(OC2C(O)C(O)COC2(O)CO)C(O)C(O)C1O` (stereo not drawn), the LC retention time came out at 0.18 min.
For the compound `CC(=O)OCC=C(C)CCC=C(C)CCC=C(C)C` (mixture of isomers) [(cis,trans)-Farnesyl acetate], the LC retention time is 2 min.
Turning to `CC(=O)NC1C(O)CC(O)(C(=O)O)OC1C(O)C(O)CO` (stereo not drawn) [N-acetylneuraminic acid,Type IV-S,Synthetic], the LC retention time was determined as 0.18 min.
Regarding `Nc1ccnc(=O)[nH]1` [Cytosine], the LC retention time came to 0.19 min.
With `NCCc1cnc[nH]1` [Histamine], the LC retention time turned out to be 0.14 min.
In the case of `O=C(O)[C@@H]1C[C@@H](O)CN1` [trans-4-Hydroxy-L-proline], the LC retention time was 0.17 min.
In the case of `COc1cc(-c2[o+]c3cc(O)cc(O)c3cc2O)cc(OC)c1O` [Malvidin Chloride] it was 2.15 min; in that of `NCCS(=O)O` [Hypotaurine], 0.16 min; in that of `CC(=O)NCCCNCCCCNCCCN` [N1-Acetylspermine Trihydrochloride], 0.14 min.
With `O=C(O)/C=C/c1ccccc1` [trans-Cinnamic acid], the LC retention time came to 1.64 min.
Consider `O=C(O)C=C(CC(=O)O)C(=O)O` [trans-Aconitic acid], for which the LC retention time came out at 0.63 min.
In the case of `OCC1OC(Oc2cc3c(OC4OC(CO)C(O)C(O)C4O)cc(O)cc3[o+]c2-c2ccc(O)cc2)C(O)C(O)C1O` (stereo not drawn) [Pelargonin chloride], the LC retention time came out at 1.14 min.
As for `CCCCCCCCCCCCCCCC(O)C(N)CO` [D-erythro-Dihydrosphingosine], the figure is 1.98 min.
Turning to `NC(=O)NCCC[C@H](N)C(=O)O` [L-Citrulline], the LC retention time was determined as 0.18 min.
Turning to `Nc1ncnc2nc[nH]c12` [Adenine], the LC retention time is 0.32 min.
In the case of `O=c1ccn(C2OC(COP(=O)(O)O)C(O)C2O)c(=O)[nH]1` (stereo not drawn) [Uridine-5'-monophosphate] it was 0.26 min.
With `O=c1c(-c2ccc(O)cc2)coc2cc(OC3OC(CO)C(O)C(O)C3O)ccc12` (stereo not drawn) [Daidzin], the LC retention time turned out to be 1.34 min.
Consider `CCC=CCC1C(=O)CCC1CC(=O)O` (racemic) [(+-)-Jasmonic acid], for which the LC retention time amounted to 1.68 min.
As for `O=c1cc[nH]cc1` [4-Hydroxypyridine], the figure is 0.25 min; as for `NCCOP(=O)(O)O` [O-Phosphorylethanolamine], 0.16 min; as for `CC(=O)OC(CC(=O)O)C[N+](C)(C)C` [O-Acety-L-carnitine hydrochloride], 0.33 min.
For the compound `COc1cc(-c2[o+]c3cc(O)cc(O)c3cc2OC2OC(CO)C(O)C(O)C2O)cc(O)c1O` (stereo not drawn) [Petunidin-3-O-beta-glucopyranoside], the LC retention time was found to be 1.22 min.
In the case of `O=C(O)C1(O)CC(O)C(O)C(O)C1` [D-(-)-Quinic acid] it was 0.19 min; in that of `CC(=O)NCCCCN` [N-acetyl putrescine hydrochloride], 0.23 min.
As to `NCCCCC(=O)O` [5-Aminovaleric acid], the LC retention time is 0.23 min.
As to `COc1cc(CNC(=O)CCCCC=CC(C)C)ccc1O` [Capsaicin], the LC retention time was 1.93 min.
As for `Nc1ccn(C2OC3COP(=O)(O)OC3C2O)c(=O)n1` (stereo not drawn) [Cytidine-3',5'-cyclicmonophosphate], the figure is 0.67 min.
Take `CS(=O)C=CCCN=C=S` (stereo not drawn): the LC retention time came out at 1.44 min.
As for `O=C1CC(c2ccc(O)cc2)Oc2cc(O)cc(O)c21` (stereo not drawn) [naringenin], the LC retention time was found to be 1.67 min.
With `CC(C)C(O)(CC(=O)O)C(=O)O` (stereo not drawn) [2-Isopropylmalic acid], the LC retention time was determined as 1.21 min.
`O=C(O)[C@@H]1CCCN1` [L-Proline]: the LC retention time was found to be 0.19 min.
`O=C(O)C=Cc1cnc[nH]1` [urocanic acid]: the LC retention time is 0.38 min.
For `CC(C)[C@@H](O)C(=O)O` [D-alpha-Hydroxyisovaleric acid], the LC retention time turned out to be 1.14 min.
As for `CN=C(N)N` [Methylguanidine hydrochloride], the figure is 0.18 min.
As for `OC1COC(OC2COC(O)C(O)C2O)C(O)C1O` (stereo not drawn) [Xylobiose], the figure is 0.18 min.
On to `Nc1ccccc1` [Aniline], for which the LC retention time was 0.42 min.
Take `O=C1CC(c2ccc(O)c(O)c2)Oc2cc(O)cc(O)c21` (stereo not drawn) [Eriodictyol]: the LC retention time came out at 1.59 min.
Consider `NC(CCC(=O)NC(CS)C(=O)NCC(=O)O)C(=O)O` [L-Glutathione (reduced form)], for which the LC retention time was found to be 0.95 min.
As for `CNC(C)C(=O)O` (racemic) [N-Methyl-DL-Alanine], the LC retention time was found to be 0.18 min.
On to `CC(CN)C(=O)O` (racemic) [DL-3-Aminoisobutyric acid], for which the LC retention time came out at 0.19 min.
Consider `O=C(O)[C@H](O)[C@@H](O)[C@H](O)[C@H](O)CO` [D-Gluconic acid sodium salt], for which the LC retention time turned out to be 0.17 min.
As for `CC1(C(=O)O)CCC2(C)CCC3(C)C(=CC(=O)C4C5(C)CCC(OC6OC(C(=O)O)C(O)C(O)C6OC6OC(C(=O)O)C(O)C(O)C6O)C(C)(C)C5CCC43C)C2C1` (stereo not drawn) [Glycyrrhizin], the LC retention time worked out at 1.7 min.
As to `NCC(=O)NCC(=O)O` [Gly-Gly], the LC retention time came out at 0.16 min.
As to `Oc1cccnc1` [3-Hydroxypyridine], the LC retention time turned out to be 0.24 min.
In the case of `O=C(O)CCC(=O)O` [Succinic acid] it was 0.49 min; in that of `O=C(O)C(O)C(O)C(O)C(O)C(=O)O` (stereo not drawn) [mucic acid], 2.13 min.
As for `O=C(O)c1cc(=O)c2ccccc2[nH]1` [Kynurenic acid], the LC retention time worked out at 1.19 min.
In the case of `OCC1OC(Oc2cc3c(O)cc(O)cc3[o+]c2-c2ccc(O)cc2)C(O)C(O)C1O` (stereo not drawn) [Callistephin Chloride] it was 1.25 min; in that of `NC(N)=NCCCC(N)C(=O)O` (stereo not drawn) [L(+)-Arginine], 0.16 min; in that of `C[N+](C)(C)CCOP(=O)([O-])OCC(O)CO` (stereo not drawn) [sn-Glycero-3-phosphocholine 1:1 cadmium chloride adduct], 0.17 min.
In the case of `CNC1(C)C2CCC(C2)C1(C)C` (stereo not drawn) [Mecamylamine hydrochloride], the LC retention time is 1.35 min.
In the case of `NC1(C(=O)O)CCCC1` [1-Amino-1-cyclopentanecarboxylic acid] it was 0.32 min; in that of `O=c1c(OC2OC(CO)C(O)C(O)C2O)c(-c2ccc(O)c(O)c2)oc2cc(O)cc(O)c12` (stereo not drawn) [Hyperoside], 1.4 min; in that of `NC(CCCC(N)C(=O)O)C(=O)O` (racemic) [DL-alpha,epsilon-Diaminopimelic acid], 0.15 min.
Regarding `Cc1ncc(CO)c(C=O)c1O` [pyridoxal hydrochrolide], the LC retention time was found to be 0.38 min.
For `CC(N)(CO)C(=O)O` (racemic) [alpha-Methyl-DL-serine], the LC retention time is 0.17 min.
In the case of `N[C@@H](CCSSCC[C@H](N)C(=O)O)C(=O)O` (racemic) [DL-homocystine], the LC retention time turned out to be 0.23 min.
As to `COc1ccc(C2CC(=O)c3c(O)cc(OC4OC(CO)C(O)C(O)C4OC4OC(C)C(O)C(O)C4O)cc3O2)cc1` (stereo not drawn) [Poncirin], the LC retention time was determined as 1.56 min.
In the case of `O=C(O)c1ccco1` [2-Furoic acid], the LC retention time came out at 1.15 min.
In the case of `CSCC1OC(n2cnc3c(N)ncnc32)C(O)C1O` (stereo not drawn) [5'-Deoxy-5'-Methylthioadenosine], the LC retention time came to 1.14 min.
In the case of `CC(N)(Cc1cnc[nH]1)C(=O)O` (racemic) [alpha-Methyl-DL-histidine dihydrochloride] it was 0.16 min; in that of `COC1C(O)C(O)C(O)C(O)C1O` [D-Pinitol], 0.17 min; in that of `CC(=O)NC(CC(C)C)C(=O)NC(CC(C)C)C(=O)NC(C=O)CCCN=C(N)N` (stereo not drawn) [Leupeptin hemisulfate salt], 1.42 min.
`NC(CSS(=O)(=O)O)C(=O)O` (stereo not drawn) [S-Sulfocysteine]: the LC retention time is 0.17 min.
For the compound `CC(C)CCC(=O)O` [4-methyl valeric acid], the LC retention time is 0.56 min.
Regarding `CC(=CCNc1ncnc2c1ncn2C1OC(CO)C(O)C1O)CO` (stereo not drawn) [trans-Zeatin-riboside], the LC retention time stood at 1.16 min.
Regarding `Nc1ncnc2c1ncn2C1CC(O)C(CO)O1` (stereo not drawn) [2'-Deoxyadenosine monohydrate], the LC retention time was found to be 1.07 min.
For `O=[N+]([O-])c1ccc(OP(=O)(O)O)cc1` [4-Nitrophenyl phosphate disodium salt hexahydrate], the LC retention time was found to be 0.92 min.
As to `NCC(CC(=O)O)c1ccc(Cl)cc1` (racemic) [(+-)-Baclofen], the LC retention time was 1.24 min.
For `CN1CCCC1c1cccnc1` (racemic) [(-)-Nicotine ( solution 1.0 mg/mL+/-5% in methanol)], the LC retention time is 0.47 min.
As for `Nc1ncnc2c1ncn2C1OC(CO)C(OP(=O)(O)O)C1O` (stereo not drawn) [Adenosine 3'-monophosphate From Yeast], the LC retention time is 0.64 min.
Turning to `CC(=O)NC(CO)C(=O)O` (racemic) [N-acetyl-DL-serine], the LC retention time worked out at 0.24 min.
As for `CCCC[C@H](N)C(=O)O` [L-Norleucine], the figure is 0.57 min.
As for `Cn1c(=O)c2c(ncn2C)n(C)c1=O` [Caffeine,Anhydrous], the figure is 1.24 min; as for `COc1cc(-c2[o+]c3cc(O)cc(OC4OC(CO)C(O)C(O)C4O)c3cc2OC2OC(COC3OC(C)C(OC(=O)C=Cc4ccc(O)cc4)C(O)C3O)C(O)C(O)C2O)cc(O)c1O` (stereo not drawn), 1.36 min; as for `CC1CCC2(NC1)OC1CC3C4CC=C5CC(O)CCC5(C)C4CCC3(C)C1C2C` (stereo not drawn) [Solasodine], 1.72 min.
As for `OCC1OC(OC2C(CO)OC(OC3C(CO)OC(O)C(O)C3O)C(O)C2O)C(O)C(O)C1O` (stereo not drawn) [Maltotriose hydrate], the figure is 0.22 min; as for `CC(=O)NC(CC(=O)O)C(=O)O` (racemic) [N-Acetyl-DL-aspartic acid], 0.31 min.

For the origin of these results see the RepoRT retention time repository (doi:10.1093/pcp/pcn183).
